# Measured values taken from US12583873B2, “Amino acid mineral complex having immunopotentiating activity and composition for foods, pharmaceuticals, or feeds comprising same” (priority 2018, dated 2026).
# “And” between values parts separate entries of the source, which are not always exact repeats. Equal values may be shown once. “Also recorded” adds a separate entry of the source. Read-outs that look alike come from different tables or passages of the source.
# Experiments:
# [1] = pig, in vivo
# [2] = tested on: immunoglobulin (IgG) in serum; conditions: pig, in vivo
# [3] = tested on: Foot-and-mouth disease antibody (FMDV type 0); conditions: pig, in vivo
# [4] = pig, in vivo; remark: listed apart in the source
# H1N1 virus [5] = experiment: Body weight change of H1N1-infected mice; type: in vivo; conditions: H1N1-infected ICR mice; for Body weight, Start point (day 0): baseline before oral 20 μg/kg/day; for Body weight as compared to the negative control group / Body weight, End point (day 5): oral 20 μg/kg/day for 5 days; for Body weight, End point (day 5): start point 100.0
# H1N1 virus [6] = experiment: H1N1 virus content in lung tissue of mice; type: in vivo; conditions: oral 20 μg/kg/day for 5 days; for Tissues virus titers: lung tissue of H1N1-infected ICR mice
Molecule,"Body weight, End time [1]","Body weight, Start time [1]",IgG [2],Antibody titer (PI) [3] [b],Positive rate [3],Positive rate for the foot-and-mouth disease antibody [3] [%],Zinc [4] [c μg/dL],Body weight as compared to CON 1 and CON 2 [1],Immunoglobulin content in blood as compared to CON 1 and CON 2 [2],Production of the foot-and-mouth disease antibody as compared to CON 1 and CON 2 [3],"Body weight, Start point (day 0) (H1N1 virus [5])",Body weight as compared to the negative control group (H1N1 virus [5]),"Body weight, End point (day 5) (H1N1 virus [5])",Tissues virus titers (H1N1 virus [6]),IgG ([2]; hydrate),Immunoglobulin content in blood as compared to CON 1 and CON 2 ([2]; hydrate),Production of the foot-and-mouth disease antibody as compared to CON 1 and CON 2 ([3]; hydrate),Virus content in the lung tissue (H1N1 virus [6]; H1N1-infected ICR mice),Zinc content in blood as compared to CON 1 and CON 2 [4]
"[O-2].[Zn+2] [CON 1, zinc oxide]",53.62b,22.56,472b mg/dL,47.38,50,50,100,–,–,–,–,–,–,–,–,–,–,–,–
zinc-aspartic acid complex [Example 1-1],54.43ab,22.56 ^,480b mg/dL,51.88,75,75,–,slight increase in body weight,not significantly different,increased slightly,100.0 ^,did not show significant increase in body weight,104.8ab,4.1b Log10 TCID50,–,–,–,–,–
"O=S(=O)([O-])[O-].[Zn+2] [CON 2, zinc sulfate]",53.74b,22.56,466b mg/dL,47.52,50,50,98,–,–,–,100.0,decreased body weight,99.9a,4.4b Log10 TCID50,–,–,–,–,–
zinc-aspartic acid complex [Comparative Example 3],54.55a,22.56 ^,489b ^ mg/dL,54.45,75,75,–,slight increase in body weight,not significantly different,increased slightly,100.0 ^,did not show significant increase in body weight,103.7ab,3.9b Log10 TCID50,–,–,–,–,–
"N[C@@H](CC(=O)[O-])C(=O)[O-].O.[Zn+2] [Example 1-2, zinc aspartate hydrate]",–,22.56 ^,–,–,–,100,–,slight increase in body weight,–,–,100.0,did not show significant increase in body weight,106.8b,2.1a Log10 TCID50,504ab mg/dL and 546a mg/dL,"significant increase; also recorded: distinct, although not significant, increase",increased slightly; also recorded: Significant increase,decreased significantly,increased significantly
